Measured values reported in PubChem BioAssay (NCI).
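All cell lines were grown in 96-well plates and treated with compound for 48 hours. TGI: concentration producing complete growth inhibition.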

Columns and labels:
Assay in all cases: growth of human tumour cells (NCI), 48 h
HCT-116 colon = tested on: HCT-116 colon
SNB-19 CNS = tested on: SNB-19 CNS
M14 melanoma = tested on: M14 melanoma
MDA-MB-231 breast = tested on: MDA-MB-231 breast
HL-60(TB) leukemia = tested on: HL-60(TB) leukemia
786-0 renal = tested on: 786-0 renal
SK-MEL-2 melanoma = tested on: SK-MEL-2 melanoma
BT-549 breast = tested on: BT-549 breast
HS 578T breast = tested on: HS 578T breast
OVCAR-8 ovarian = tested on: OVCAR-8 ovarian
MDA-N = tested on: MDA-N

| Structure (SMILES) | TGI (HCT-116 colon) [µM] | TGI (SNB-19 CNS) [µM] | TGI (M14 melanoma) [µM] | TGI (MDA-MB-231 breast) [µM] | TGI (HL-60(TB) leukemia) [µM] | TGI (786-0 renal) [µM] | TGI (SK-MEL-2 melanoma) [µM] | TGI (BT-549 breast) [µM] | TGI (HS 578T breast) [µM] | TGI (OVCAR-8 ovarian) [µM] | TGI (MDA-N) [µM] |
| --- | --- | --- | --- | --- | --- | --- | --- | --- | --- | --- | --- |
| C=C(CCC(C)C1CCC2C3=C(C(=O)CC21C)C1(C)CCC(=O)[C@@H](C)C1CC3=O)C(C)C(=O)O (stereo partly specified) | > 100 | > 100 | > 100 | > 100 | 32.6 | 37.8 | > 100 | > 100 | > 100 | > 100 |  |
| CN(C)CCNC(=O)c1ccc(NCCCN(C)CCCNc2ccc3c(=O)n(CCN(C)C)c(=O)n4c5ccccc5c(=O)c2c34)c2c(=O)c3ccccc3[nH]c12 | 0.0704 | 0.523 | 0.67 | 0.234 | 0.273 | 0.11 | 0.228 | 1.25 |  | 0.885 | 0.199 |
| Cc1cc(=O)n2nc(SCc3ccccc3)sc2n1 | > 100 | > 100 | > 100 | > 100 | > 100 | > 100 |  | > 100 | > 100 | > 100 | > 100 |
| CN(C)c1nc(N(C)C)nc(N(C)C23CC4CC(CC(C4)C2)C3)n1 | 58.8 | 96 | > 100 | 77.4 |  | > 100 | 55.5 | 63.4 |  | > 100 | 53.7 |
| Cc1ccc(S(=O)(=O)NNC(=O)c2cc(C)ccc2NC(=O)C23CC4CC(CC(C4)C2)C3)cc1 | > 100 | 57.2 | > 100 | > 100 | > 100 | 57.3 |  | > 100 | > 100 | > 100 | > 100 |
| O=C(CSCC(=O)N/N=C/c1cccs1)N/N=C/c1cccs1 | > 100 | > 100 | > 100 | > 100 | > 100 | > 100 | > 100 | > 100 | > 100 | > 100 |  |
| N#Cc1nc(CCCCCN2C(=O)c3ccccc3C2=O)oc1N | > 100 | > 100 | > 100 | > 100 |  | > 100 | > 100 | > 100 | > 100 | > 100 | > 100 |
| COC1OC(Cc2nnc(C)o2)C(OCc2ccccc2)C(OCc2ccccc2)C1OCc1ccccc1 (stereo unspecified) | > 100 | > 100 | > 100 | > 100 | 76.3 | > 100 | 29.2 | 83.1 | > 100 |  |  |
| Nc1cccc2c1C(=O)c1cccc(N)c1C2=O | > 100 | > 100 | > 100 |  |  | > 100 | > 100 |  |  | > 100 |  |
| CCOC(=O)c1c(N2CCCC2)ncn(-c2ccccc2)c1=S | > 100 | > 100 | > 100 |  | > 100 | > 100 | > 100 | > 100 | > 100 | > 100 | > 100 |
| CCOC(=O)C(=[N+]=[N-])C(=O)Nc1nn2nnnc2c2ccccc12 | > 100 | > 100 | > 100 | > 100 | > 100 | > 100 | > 100 | > 100 |  | > 100 | > 100 |
| Cc1ccc(C(C)(C)C[P+](C)(c2ccccc2)c2ccccc2)cc1 | > 58.1 | 89.3 |  |  | 7.56 |  | 19.7 |  |  | > 100 |  |
| CC(=O)/C(=C/n1c(=S)[nH]c2ccccc21)C(=O)Nc1ccccc1C | > 100 | > 100 | > 100 | > 100 | > 100 | > 100 | > 100 | > 100 |  | > 100 | > 100 |
| Cc1ccccc1-n1c(C)nc2c1C(=O)c1ccccc1C2=O | > 100 | > 100 | > 100 |  | 87.5 | > 100 | > 100 |  |  | > 100 |  |
| CCNc1ccc2c(c1)Cc1ccccc1-2 | > 100 | > 100 | > 100 | > 100 | > 100 | > 100 | > 100 | 75.5 | > 100 | > 100 |  |
| Cc1ccc(C2=NOC(=O)[C@@H]3CCCC[C@@H]23)cc1 | > 100 | > 100 | > 100 | > 100 | > 100 | > 100 |  | > 100 | > 100 | > 100 | > 100 |
| CC(=O)OCC1OC(n2c3c(c(-c4cccc5ccccc45)c(C#N)c2=S)CCCC3)C(OC(C)=O)C(OC(C)=O)C1OC(C)=O (stereo unspecified) | > 100 | > 100 | > 100 | > 100 | > 100 | > 100 | > 100 |  |  | > 100 | > 100 |
| Cc1ccc(C(=O)N/N=C(\N=Nc2cccc(Cl)c2)c2ccc(N(CCC#N)CCC#N)cc2C)cc1 | > 100 | > 100 | > 100 | > 100 | > 100 | > 100 | > 100 | > 100 |  | > 100 | > 100 |
| COc1cccc(CC(C)NCC(O)c2ccc(O)c(O)c2)c1 (stereo unspecified) | > 100 | > 100 | > 100 | 60.1 |  | > 100 | > 100 | > 100 | > 100 | 53.6 |  |
| Nc1ncnc2c1ncn2C1CCC(COS(N)(=O)=O)C1 (stereo unspecified) | > 100 | > 100 | > 100 | > 100 | > 100 | > 100 | > 100 |  | > 100 | > 100 | > 100 |
| COc1ccc(/C=c2\[nH]c3nc(=O)c(N4CCOCC4)c(N)n3c2=O)cc1 | > 100 | > 100 | > 100 | > 100 | > 100 | > 100 |  |  | > 100 | > 100 | > 100 |
| COC(=O)C1CCC(=O)N1C(=O)Cc1ccc(OC)cc1 (stereo unspecified) | > 100 | > 100 | > 100 |  |  |  |  |  |  | > 100 |  |
| Cc1nc2c3c(ncn2n1)Oc1c(c(-c2ccccc2)nn1-c1ccccc1)C3c1ccc(Cl)cc1 (stereo unspecified) | > 100 | > 100 | > 100 | > 100 |  | > 100 | > 100 |  | 74.1 | > 100 | > 100 |
